In the Kinase Knowledgebase extract (Sharma et al. 2016):

What follows are compounds tested against PIK3CG (human) (UniProt P48736) (assay: Inhibition of PIK3CG Kinase Activity).
Sequence of PIK3CG (human) (P48736 whole entry, looked up): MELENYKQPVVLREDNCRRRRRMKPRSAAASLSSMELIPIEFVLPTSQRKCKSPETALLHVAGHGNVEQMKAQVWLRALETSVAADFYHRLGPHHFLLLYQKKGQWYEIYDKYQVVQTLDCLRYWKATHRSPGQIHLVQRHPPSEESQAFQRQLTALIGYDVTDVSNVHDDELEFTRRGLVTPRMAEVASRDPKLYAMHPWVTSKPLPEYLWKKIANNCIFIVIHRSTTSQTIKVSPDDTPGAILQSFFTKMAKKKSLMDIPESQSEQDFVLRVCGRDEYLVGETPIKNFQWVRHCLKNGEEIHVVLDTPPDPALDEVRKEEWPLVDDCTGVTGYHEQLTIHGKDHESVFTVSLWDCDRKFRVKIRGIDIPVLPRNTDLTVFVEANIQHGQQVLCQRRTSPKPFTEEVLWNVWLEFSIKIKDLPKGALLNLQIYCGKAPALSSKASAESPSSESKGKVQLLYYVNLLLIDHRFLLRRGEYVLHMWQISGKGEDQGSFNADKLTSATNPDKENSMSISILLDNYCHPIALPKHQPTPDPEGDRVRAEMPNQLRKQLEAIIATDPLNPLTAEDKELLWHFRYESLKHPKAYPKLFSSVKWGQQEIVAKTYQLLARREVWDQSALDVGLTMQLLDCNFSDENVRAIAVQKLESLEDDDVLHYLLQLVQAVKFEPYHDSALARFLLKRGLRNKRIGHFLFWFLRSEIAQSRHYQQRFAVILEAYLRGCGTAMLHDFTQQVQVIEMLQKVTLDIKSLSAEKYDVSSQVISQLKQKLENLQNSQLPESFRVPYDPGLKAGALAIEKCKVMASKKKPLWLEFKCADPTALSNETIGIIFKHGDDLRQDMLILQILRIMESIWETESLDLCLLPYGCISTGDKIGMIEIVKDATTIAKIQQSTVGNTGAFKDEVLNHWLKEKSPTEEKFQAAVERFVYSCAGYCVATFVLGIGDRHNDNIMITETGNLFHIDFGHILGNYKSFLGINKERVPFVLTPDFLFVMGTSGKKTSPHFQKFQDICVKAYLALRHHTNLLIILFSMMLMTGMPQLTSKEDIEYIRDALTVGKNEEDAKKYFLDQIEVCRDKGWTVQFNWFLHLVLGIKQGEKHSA

IC50, < 0.6 µM:
COc1cc(Nc2nc(C)c(-c3ccc(S(N)(=O)=O)cc3)s2)ncn1, Cc1nc(Nc2cnccn2)sc1-c1ccc(S(=O)(=O)NC2CC2)cc1, Cc1nc(Nc2nc[nH]n2)sc1-c1ccc(S(N)(=O)=O)cc1, Cc1nc(Nc2cnccn2)sc1-c1ccc(S(C)(=O)=O)cc1, Cc1nc(Nc2cc[nH]n2)sc1-c1ccc(S(C)(=O)=O)c(OCCN2CCOCC2)c1, CCc1nnc(Nc2nc(C)c(-c3ccc(S(=O)(=O)NCCO)cc3)s2)s1, Cc1nc(Nc2cncc(Cl)n2)sc1-c1ccc(S(C)(=O)=O)cc1, Cc1nc(Nc2cncc(NCCCO)n2)sc1-c1ccc(S(N)(=O)=O)cc1, COc1ccc(Nc2nc(C)c(-c3ccc(S(N)(=O)=O)cc3)s2)cn1, Cc1nc(Nc2cc[nH]n2)sc1-c1cccc(S(=O)(=O)NCCO)c1, CCN(CC)CCCNS(=O)(=O)c1cc(-c2sc(Nc3cc[nH]n3)nc2C)ccc1Cl, Cc1nc(Nc2ccc(N3CCN(C)CC3)nc2)sc1-c1ccc(S(C)(=O)=O)cc1, Cc1nc(Nc2ccc(Cl)nn2)sc1-c1ccc(S(N)(=O)=O)cc1, Cc1nc(Nc2ccccn2)sc1-c1ccc(S(N)(=O)=O)cc1, Cc1nc(Nc2cc[nH]n2)sc1-c1cccc(S(N)(=O)=O)c1, COc1cncc(Nc2nc(C)c(-c3ccc(S(=O)(=O)NC4CC4)cc3)s2)n1, Cc1nc(Nc2cncc(N3CCN(C)CC3)n2)sc1-c1ccc(S(N)(=O)=O)cc1, Cc1nc(Nc2nccs2)sc1-c1ccc(Cl)c(S(=O)(=O)NCCO)c1, CCCc1nccn1-c1cc(-c2sc(Nc3cc[nH]n3)nc2C)ccc1S(C)(=O)=O, CCCc1nccn1-c1cc(-c2sc(Nc3nnc(CC)s3)nc2C)ccc1S(C)(=O)=O, Cc1nnc(Nc2nc(C)c(-c3ccc(S(C)(=O)=O)c(-n4ccnc4)c3)s2)s1, Cc1nc(Nc2nnc(N3CCN(C)CC3)s2)sc1-c1ccc(S(C)(=O)=O)c(C(F)(F)F)c1, Cc1nc(Nc2nnc(CCN3CCOCC3)s2)sc1-c1ccc(S(C)(=O)=O)c(C(F)(F)F)c1, COc1ccc(Nc2nc(C)c(-c3ccc(Cl)c(S(C)(=O)=O)c3)s2)cn1, Cc1nc(Nc2cnccn2)sc1-c1ccc(S(C)(=O)=O)c(C(F)(F)F)c1, Cc1nc(Nc2cnccn2)sc1-c1ccc(S(N)(=O)=O)cc1, Cc1nc(Nc2nnc(C3CCC(C(=O)O)CC3)s2)sc1-c1ccc(S(C)(=O)=O)c(C(F)(F)F)c1 (centres undefined), Cc1nc(Nc2cnccn2)sc1-c1ccc(S(C)(=O)=O)c(-n2ccnc2C(C)C)c1, Cc1nc(Nc2nnc(CC(=O)O)s2)sc1-c1ccc(S(N)(=O)=O)cc1, Cc1nc(Nc2ccn(C)n2)sc1-c1ccc(S(C)(=O)=O)c(F)c1, Cc1nc(Nc2cccnc2)sc1-c1ccc(S(C)(=O)=O)c(Cl)c1, Cc1nc(Nc2nnn[nH]2)sc1-c1ccc(S(N)(=O)=O)cc1, Cc1nc(Nc2cnccn2)sc1-c1ccc(S(C)(=O)=O)c(-n2ccnc2C)c1, Cc1cc(Nc2nc(C)c(-c3ccc(Cl)c(S(=O)(=O)NCCO)c3)s2)n(C)n1, Cc1cnc(Nc2nc(C)c(-c3ccc(C(=O)O)cc3)s2)s1, Cc1nc(Nc2nnc(CCN(C)C)s2)sc1-c1ccc(S(N)(=O)=O)cc1, Cc1nc(Nc2cnccn2)sc1-c1ccc(S(N)(=O)=O)c(Cl)c1, Cc1csc(Nc2nc(C)c(-c3ccc(S(N)(=O)=O)cc3)s2)n1, Cc1nc(Nc2cnccn2)sc1-c1ccc(S(C)(=O)=O)c(-n2ccnc2)c1, CCOc1cccc(Nc2nc(C)c(-c3ccc(S(N)(=O)=O)cc3)s2)n1, Cc1nc(Nc2cncc(NCCN3CCOCC3)n2)sc1-c1ccc(S(N)(=O)=O)cc1, Cc1nc(Nc2cccnc2)sc1-c1ccc(S(N)(=O)=O)cc1, Cc1nc(Nc2cc[nH]n2)sc1-c1ccc(S(C)(=O)=O)c(N2CCN(C)CC2)c1, Cc1nc(Nc2ccn(C)n2)sc1-c1ccc(Cl)c(S(=O)(=O)NCCO)c1, CCc1nccn1-c1cc(-c2sc(Nc3cnccn3)nc2C)ccc1S(C)(=O)=O, Cc1nc(Nc2cc[nH]n2)sc1-c1ccc(C(=O)O)cc1, Cc1nc(Nc2cncc(Cl)n2)sc1-c1ccc(S(N)(=O)=O)cc1, Cc1nc(Nc2cc[nH]n2)sc1-c1ccc(Cl)c(S(=O)(=O)N(CCO)CCO)c1, Cc1nc(Nc2nncs2)sc1-c1ccc(S(N)(=O)=O)cc1, Cc1nc(Nc2cc[nH]n2)sc1-c1ccc(S(C)(=O)=O)c(-n2ccnc2)c1, Cc1nc(Nc2cncc(N3CCOCC3)n2)sc1-c1ccc(S(N)(=O)=O)cc1, Cc1cnc(Nc2nc(C)c(-c3ccc(S(N)(=O)=O)cc3)s2)s1, CCN(CC)CCN(C)c1cc(-c2sc(Nc3cc[nH]n3)nc2C)ccc1S(C)(=O)=O, Cc1nc(Nc2cnccn2)sc1-c1cccc(S(N)(=O)=O)c1, Cc1nc(Nc2ccc(Cl)cn2)sc1-c1ccc(S(N)(=O)=O)cc1, Cc1nc(Nc2cc[nH]n2)sc1-c1ccc(S(C)(=O)=O)c(F)c1, CNS(=O)(=O)c1ccc(-c2sc(Nc3cncc(OC)n3)nc2C)cc1, Cc1nc(Nc2cc[nH]n2)sc1-c1ccc(Cl)c(S(=O)(=O)NCCO)c1, Cc1nc(Nc2nnc(CCC(=O)O)s2)sc1-c1ccc(S(N)(=O)=O)cc1, Cc1nc(Nc2cncc(N3CCN(C)CC3)n2)sc1-c1ccc(S(C)(=O)=O)c(C(F)(F)F)c1, Cc1nc(Nc2cnccn2)sc1-c1cccc(S(=O)(=O)NCCO)c1, Cc1nc(Nc2cnccn2)sc1-c1ccc(Cl)c(S(=O)(=O)NCCO)c1, CCOC(=O)CCc1nnc(Nc2nc(C)c(-c3ccc(S(N)(=O)=O)cc3)s2)s1, Cc1nc(Nc2cnccn2)sc1-c1ccc(Cl)c(S(N)(=O)=O)c1, Cc1nc(Nc2cc[nH]n2)sc1-c1ccc(S(C)(=O)=O)c(C(F)(F)F)c1, CNS(=O)(=O)c1ccc(-c2sc(Nc3cnccn3)nc2C)cc1, Cc1nc(Nc2cc[nH]n2)sc1-c1ccc(S(N)(=O)=O)cc1, Cc1nc(Nc2n[nH]cc2Br)sc1-c1ccc(S(C)(=O)=O)c(F)c1, Cc1nc(Nc2cnccn2)sc1-c1ccc(C(=O)O)cc1, Cc1nc(Nc2cncc(Cl)n2)sc1-c1ccc(S(C)(=O)=O)c(C(F)(F)F)c1, Cc1nc(Nc2nccs2)sc1-c1ccc(S(N)(=O)=O)cc1, Cc1nc(Nc2nnc(N3CCOCC3)s2)sc1-c1ccc(S(C)(=O)=O)c(C(F)(F)F)c1, COc1cncc(Nc2nc(C)c(-c3ccc(S(N)(=O)=O)cc3)s2)n1, Cc1nc(Nc2cnccn2)sc1-c1ccc([S+](C)[O-])cc1 (centres undefined), Cc1nc(Nc2nnc(CCC(=O)O)s2)sc1-c1ccc(S(C)(=O)=O)c(C(F)(F)F)c1, Cc1nc(Nc2ncccn2)sc1-c1ccc(S(N)(=O)=O)cc1, Cc1nnc(Nc2nc(C)c(-c3ccc(S(N)(=O)=O)cc3)s2)s1, Cc1cnc(Nc2nc(C)c(-c3ccc(Cl)c(S(=O)(=O)NCCO)c3)s2)s1, CCc1nnc(Nc2nc(C)c(-c3cccc(S(N)(=O)=O)c3)s2)s1, Cc1nc(Nc2nnc(CCN3CCOCC3)s2)sc1-c1ccc(S(N)(=O)=O)cc1, COc1ccc(-c2sc(Nc3cnccn3)nc2C)cc1S(N)(=O)=O, Cc1nc(Nc2cccnc2)sc1-c1ccc(S(N)(=O)=O)c(Cl)c1, Cc1nc(Nc2ccncc2)sc1-c1ccc(S(N)(=O)=O)cc1, CCN(CC)CCCNc1cncc(Nc2nc(C)c(-c3ccc(S(N)(=O)=O)cc3)s2)n1
